Test results taken from patent publication US20250257325A1, “SYSTEM AND COMPOSITION OF R[…] FOR P[…] VIRUSES AND METHODS THEREOF” (The University of Hong Kong, priority 2024, published 2025).
Entries after “also recorded” stand apart in the source; their conditions may differ.

Columns and labels:
HRV-C3 [1] = assay: HRV-C3 replication and serial passage in airway organoids with CYT387 or DMSO (viral load by RT-qPCR); type: cell-based, human rhinovirus C; settings: human airway organoids; for serial HRV-C propagation (P1-P5) and viral load versus DMSO-treated organoids: 1 μg/ml CYT387, media harvested at 96 h.p.i.
Experimental: We examined HRV-C replication in airway organoids in the presence or absence of CYT387 (FIG. 2A). Briefly, we inoculated an HRV-C3+ medium (medium collected from organoids infected by an HRV-C3+ clinical specimen) onto the airway organoids pre-treated with 1 μg/ml CYT387 or DMSO. The infected organoids were further incubated with CYT387 (CYT thereafter) or DMSO for 96 hours, after which we harvested the culture medium (P1) to examine viral growth. P1 media from CYT- and mock-treated organoids were brought forward to P2 passage in the presence of CYT and DMSO, respectively (FIG. 2A). […] In the following P3 passage, we had to inoculate CYT-treated P2 media onto airway organoids, in which we continued CYT or DMSO treatment to verify the enhancement effect of CYT. This CYT-treated media inoculation, followed by CYT or DMSO treatment, was repeated in the subsequent P4 and P5 passage.
A total of 9 HRV-C positive archived nasopharyngeal specimens from clinical patients were used for the study. Mature human airway and nasal organoids growing on 24-transwell inserts were washed twice with the basal medium (Advanced DMEM/F-12 (Gibco) supplemented with 1% HEPES, 1% GlutaMAX, and 1% Penicillin/Streptomycin), followed by virus inoculation with the indicated viral gene copy and subsequent incubation in the PD medium (PneumaCult-ALI medium (STEMCELL Technologies) supplemented with 10 μM DAPT and 10 μM Y27632), at 37° C. for 4 h. After incubation, the airway or nasal organoids were washed 3 times with the basal medium to remove residual inoculum. The apical and basolateral chambers were replenished with 300 μl and 500 μl PD medium, respectively. As for CYT387 treatment, airway and nasal organoids were pre-incubated in the PD medium with 1 μg/ml CYT387 (Invivogen, inh-cy87) or DMSO overnight. After virus inoculation, PD medium supplemented with 1 μg/ml CYT387 or DMSO was dispersed into apical and basolateral chambers to maintain the organoids. To assess the effect of temperature on viral growth, we infected nasal organoids with HRV-C3 and HRV-A1 at 100 viral gene copy/cell and maintained the organoids at 33° C. or 37° C. […] Culture media were harvested from the infected organoids at the indicated h.p.i. to detect viral replication. To investigate the antiviral effect of inhibitors on HRV-C replication, organoids were inoculated with HRV-A1 or HRV-C3 at 1000 viral gene copy/cell and incubated with the PD medium in the presence of 1 μM Rupintrivir, 3 μM Itraconazole, or DMSO. The culture media were collected at the indicated h.p.i. for viral load detection. […]

HRV-C3 [2] = assay: HRV-C3 serial passage in nasal organoids with CYT387 or DMSO (viral load by RT-qPCR); type: cell-based, human rhinovirus C; settings: human nasal organoids, CYT387 vs DMSO, 100 viral gene copy/cell, 96 h.p.i.
Experimental: We inoculated nasal organoids with the HRV-C3+ medium collected from organoids infected with an HRV-C3+ clinical specimen in the presence of CYT or DMSO and collected culture media at 96 h.p.i. Due to the high viral load in DMSO-treated nasal organoids in a preliminary experiment, we changed the experimental design. Briefly, the virus-containing media from CYT- and DMSO-treated organoids were brought forward to the next round of infection with the CYT and DMSO treatment, respectively (FIG. 3A). […] Nonetheless, in the absence of CYT, nasal organoids derived from two different donors sustained four consecutive passages of HRV-C3 (FIG. 3B). We also tested HRV-C11+ (FIG. 3C) and HRV-C15+ (FIG. 3D) medium (the medium collected from organoids infected with an HRV-C11+ and HRV-C15+ clinical specimen respectively) in nasal organoids derived from another donor. The two subtypes of HRV-C were serially passaged three times with high viral loads, and more passages could be furthered, if necessary. Overall, nasal organoids per se sustained serial propagation of HRV-C without any intervention. […] HRV-C virions released from the nasal organoids were concentrated and applied to transmission electron microscope (TEM) examination. Virion particles sized around 30 nm, and empty capsid particles were readily discernible (FIG. 3F). […]

HRV-C3 [3] = assay: Antiviral inhibition in airway organoids infected with HRV-C3 (viral load by RT-qPCR); type: cell-based, human rhinovirus C; settings: human airway organoids, 1 μM Rupintrivir or 3 μM Itraconazole, 1000 viral gene copy/cell, compared with HRV-A
Experimental: (§1) We then performed an antibody-blocking experiment in nasal organoids to assess the role of CDHR3 on HRV-C replication. We examined HRV-C replication in the nasal organoids in the presence of two a-CDHR3 antibodies or an isotypic IgG. […] Itraconazole^32, a repurposed antifungal drug with documented efficacy against rhinoviruses, was also tested.
(§2) A total of 9 HRV-C positive archived nasopharyngeal specimens from clinical patients were used for the study. Mature human airway and nasal organoids growing on 24-transwell inserts were washed twice with the basal medium (Advanced DMEM/F-12 (Gibco) supplemented with 1% HEPES, 1% GlutaMAX, and 1% Penicillin/Streptomycin), followed by virus inoculation with the indicated viral gene copy and subsequent incubation in the PD medium (PneumaCult-ALI medium (STEMCELL Technologies) supplemented with 10 μM DAPT and 10 μM Y27632), at 37° C. for 4 h. After incubation, the airway or nasal organoids were washed 3 times with the basal medium to remove residual inoculum. The apical and basolateral chambers were replenished with 300 μl and 500 μl PD medium, respectively. As for CYT387 treatment, airway and nasal organoids were pre-incubated in the PD medium with 1 μg/ml CYT387 (Invivogen, inh-cy87) or DMSO overnight. […]

HRV-A1 = assay: Antiviral inhibition in airway organoids infected with HRV-A1 (viral load by RT-qPCR); type: cell-based, human rhinovirus A; settings: human airway organoids, 1 μM Rupintrivir or 3 μM Itraconazole, 1000 viral gene copy/cell, compared with HRV-C
Experimental: as §1, §2

Structure (SMILES)	serial HRV-C propagation (P1-P5) and viral load versus DMSO-treated organoids (HRV-C3 [1])	serial HRV-C propagation (P1-P5) and viral load versus DMSO-treated organoids (HRV-C3 [1]; listed as CYT)	viral replication in P2 passage (HRV-C3 [1]; 1 μg/ml CYT387, no viral growth in DMSO-treated organoids)	viral load in P1 media (HRV-C3 [1]; 1 μg/ml CYT387 vs DMSO, first passage, 96 h.p.i.)	viral growth (HRV-C3 [2])	inhibitory effect on HRV-C (relative viral load versus DMSO-treated organoids) (HRV-C3 [3])	inhibitory effect on HRV-A (relative viral load versus DMSO-treated organoids) (HRV-A1)
N#CCNC(=O)c1ccc(-c2ccnc(Nc3ccc(N4CCOCC4)cc3)n2)cc1 [CYT387, Momelotinib]	enabled serial propagation	consecutively passaged five times; also recorded: higher viral load	sustained robust viral replication	elevated viral load	significantly boosted viral growth		
CCOC(=O)/C=C/[C@H](C[C@@H]1CCNC1=O)NC(=O)[C@@H](CC(=O)[C@@H](NC(=O)c1cc(C)on1)C(C)C)Cc1ccc(F)cc1 [Rupintrivir]						more prominent inhibitory effect	more prominent inhibitory effect of both drugs on HRV-C than HRV-A
